In US5179088A, “1-Carba(dethia)cephalosporin antibiotics” (Eli Lilly and Company, priority 1990, dated 1993):

Tests used:
Format in all cases: cell-based
Set-up in all cases: unit not given here
Staphylococcus Aureus = test: in vitro antibacterial activity, agar dilution (Staphylococcus aureus)
Procedure: (§1) *minimum inhibitory concentrations were determined by the Agardilution

Staphylococcus Epi = test: in vitro antibacterial activity, agar dilution (Staphylococcus epi)
Procedure: as §1

Streptococcus A = test: in vitro antibacterial activity, agar dilution (Streptococcus A); settings: strain C203
Procedure: as §1

Streptococcus pn = test: in vitro antibacterial activity, agar dilution (Streptococcus pn); settings: strain PARK
Procedure: as §1

Streptococcus D = test: in vitro antibacterial activity, agar dilution (Streptococcus D)
Procedure: as §1

H. Influ. = test: in vitro antibacterial activity, agar dilution (H. influ.)
Procedure: as §1

E. coli = test: in vitro antibacterial activity, agar dilution (E. coli)
Procedure: as §1

Klebsiella = test: in vitro antibacterial activity, agar dilution (Klebsiella)
Procedure: as §1

Enterbacter Aerogenes = test: in vitro antibacterial activity, agar dilution (Enterobacter aerogenes)
Procedure: as §1

Enterbacter Cloacea = test: in vitro antibacterial activity, agar dilution (Enterobacter cloacae)
Procedure: as §1

Salmonella = test: in vitro antibacterial activity, agar dilution (Salmonella)
Procedure: as §1

Pseudomonas = test: in vitro antibacterial activity, agar dilution (Pseudomonas)
Procedure: as §1

Serratia = test: in vitro antibacterial activity, agar dilution (Serratia)
Procedure: as §1

Shig. sonn = test: in vitro antibacterial activity, agar dilution (Shig. sonn); settings: strain N9
Procedure: as §1

Proteus morg = test: in vitro antibacterial activity, agar dilution (Proteus morg); settings: strain PR15
Procedure: as §1

Proteus incon = test: in vitro antibacterial activity, agar dilution (Proteus incon); settings: strain PR33
Procedure: as §1

Proteus rett = test: in vitro antibacterial activity, agar dilution (Proteus rett); settings: strain C24
Procedure: as §1

Citro = test: in vitro antibacterial activity, agar dilution (Citro); settings: strain CF17
Procedure: as §1

Acin = test: in vitro antibacterial activity, agar dilution (Acin); settings: strain AC12
Procedure: as §1

In the case of `CO/N=C(\C(=O)N[C@@H]1C(=O)N2C(C(=O)O)=C(c3csc(N)n3)CC[C@H]12)c1csc(N)n1` [Example 39], the minimum inhibitory concentration (Staphylococcus Aureus; strain S13E) is reported as > 128, the minimum inhibitory concentration (Staphylococcus Aureus; strain V41) is reported as 8 and the minimum inhibitory concentration (Staphylococcus Aureus; strain X1.1) is reported as 4. The minimum inhibitory concentration (Staphylococcus Aureus; strain X400) was > 128, the minimum inhibitory concentration (Staphylococcus Epi; strain 222) was 32 and the minimum inhibitory concentration (Staphylococcus Epi; strain 270) was 16. The minimum inhibitory concentration (Streptococcus A) was “< .008”, the minimum inhibitory concentration (Streptococcus pn) was “.015” and the minimum inhibitory concentration (Streptococcus D; strain 2041) was 8. The minimum inhibitory concentration (Streptococcus D; strain X66) was > 128, the minimum inhibitory concentration (H. Influ.; res, strain 76) was “.06” and the minimum inhibitory concentration (H. Influ.; sens, strain C.L.) was “.06”. For the same compound, the minimum inhibitory concentration (E. coli; strain EC14) was “.5”, the minimum inhibitory concentration (E. coli; strain N10) was 1 and the minimum inhibitory concentration (E. coli; strain TEM) was “.5”. The minimum inhibitory concentration (Klebsiella; strain KAE) was 2, the minimum inhibitory concentration (Klebsiella; strain X26) was “.015” and the minimum inhibitory concentration (Klebsiella; strain X68) was “.5”. For the same compound, the minimum inhibitory concentration (Enterbacter Aerogenes; strain C32) was 1, the minimum inhibitory concentration (Enterbacter Aerogenes; strain EB17) was “.5” and the minimum inhibitory concentration (Enterbacter Cloacea; strain 265A) was > 128. The minimum inhibitory concentration (Enterbacter Cloacea; strain EB5) was 2, the minimum inhibitory concentration (Salmonella; strain 1335) was 2 and the minimum inhibitory concentration (Salmonella; strain X514) was 1. The minimum inhibitory concentration (Pseudomonas; strain PS18) was > 128, the minimum inhibitory concentration (Pseudomonas; strain PS72) was > 128 and the minimum inhibitory concentration (Pseudomonas; strain X239) was > 128. For the same compound, the minimum inhibitory concentration (Pseudomonas; strain X528) was > 128, the minimum inhibitory concentration (Serratia; strain SE3) was 8 and the minimum inhibitory concentration (Serratia; strain X99) was 1. For the same compound, the minimum inhibitory concentration (Shig. sonn) was “.25”, the minimum inhibitory concentration (Proteus morg) was 4 and the minimum inhibitory concentration (Proteus incon) was “.25”. The minimum inhibitory concentration (Proteus rett) was “.25”, the minimum inhibitory concentration (Citro) was 8 and the minimum inhibitory concentration (Acin) was 128.

`CON=C(C(=O)NC1C(=O)N2C(C(=O)[O-])=C(c3csc(-c4ccc[n+](C)c4)n3)CCC12)c1csc(N)n1` (stereo not drawn) [Example 34, 7β-[(2-aminothiazol-4-yl)-Z-methoximinoacetylamino]-1-carba-(1-dethia)-3-[2-(1-methyl-3-pyridyl)thiazol-4-yl]-3-cephem-4-carboxylic acid] was tested, and the minimum inhibitory concentration (Staphylococcus Aureus; strain S13E) was > 128, the minimum inhibitory concentration (Staphylococcus Aureus; strain V41) was 8 and the minimum inhibitory concentration (Staphylococcus Aureus; strain X1.1) was 1. The minimum inhibitory concentration (Staphylococcus Aureus; strain X400) was 128, the minimum inhibitory concentration (Staphylococcus Epi; strain 222) was 4 and the minimum inhibitory concentration (Staphylococcus Epi; strain 270) was 16. For the same compound, the minimum inhibitory concentration (Streptococcus A) was “.015”, the minimum inhibitory concentration (Streptococcus pn) was “.015” and the minimum inhibitory concentration (Streptococcus D; strain 2041) was 128. For the same compound, the minimum inhibitory concentration (Streptococcus D; strain X66) was > 128, the minimum inhibitory concentration (H. Influ.; res, strain 76) was “.015” and the minimum inhibitory concentration (H. Influ.; sens, strain C.L.) was “.015”. For the same compound, the minimum inhibitory concentration (E. coli; strain EC14) was “.015”, the minimum inhibitory concentration (E. coli; strain N10) was “.03” and the minimum inhibitory concentration (Klebsiella; strain KAE) was “.25”. The minimum inhibitory concentration (Klebsiella; strain X26) was “< .008”, the minimum inhibitory concentration (Klebsiella; strain X68) was “.06” and the minimum inhibitory concentration (Enterbacter Aerogenes; strain C32) was “.03”. The minimum inhibitory concentration (Enterbacter Aerogenes; strain EB17) was “.03”, the minimum inhibitory concentration (Enterbacter Cloacea; strain 265A) was 4 and the minimum inhibitory concentration (Enterbacter Cloacea; strain EB5) was “.125”. The minimum inhibitory concentration (Salmonella; strain 1335) was “.06”, the minimum inhibitory concentration (Salmonella; strain X514) was “.015” and the minimum inhibitory concentration (Serratia; strain SE3) was “.125”. For the same compound, the minimum inhibitory concentration (Serratia; strain X99) was “.06”, the minimum inhibitory concentration (Shig. sonn) was “.06” and the minimum inhibitory concentration (Proteus morg) was “.06”. The minimum inhibitory concentration (Proteus incon) was “.03”, the minimum inhibitory concentration (Proteus rett) was “.03” and the minimum inhibitory concentration (Citro) was “.015”. It also gave a minimum inhibitory concentration (Acin) of 128.

In the case of `Cn1c([N+](=O)[O-])cnc1-c1nc(C2=C(C(=O)O)N3C(=O)[C@@H](NC(=O)/C(=N\O)c4csc(N)n4)[C@H]3CC2)cs1` [Example 33, 7β-[(2-Aminothiazol-4-yl)-Z-hydroxyiminoacetylamino]-1-carba-(1-dethia)-3-[2-(4-nitro-3-methylimidazol-2-yl)thiazol-4-yl]-3-cephem-4-carboxylicacid], the minimum inhibitory concentration (Staphylococcus Aureus; strain S13E) is reported as 4, the minimum inhibitory concentration (Staphylococcus Aureus; strain V41) is reported as “.5” and the minimum inhibitory concentration (Staphylococcus Aureus; strain X1.1) is reported as “.06”. For the same compound, the minimum inhibitory concentration (Staphylococcus Aureus; strain X400) was > 128, the minimum inhibitory concentration (Staphylococcus Epi; strain 222) was 1 and the minimum inhibitory concentration (Staphylococcus Epi; strain 270) was 4. For the same compound, the minimum inhibitory concentration (Streptococcus A) was “< .008”, the minimum inhibitory concentration (Streptococcus pn) was “.015” and the minimum inhibitory concentration (Streptococcus D; strain 2041) was 1. The minimum inhibitory concentration (Streptococcus D; strain X66) was 128, the minimum inhibitory concentration (H. Influ.; res, strain 76) was “.015” and the minimum inhibitory concentration (H. Influ.; sens, strain C.L.) was “.06”. For the same compound, the minimum inhibitory concentration (E. coli; strain EC14) was 1, the minimum inhibitory concentration (E. coli; strain N10) was 2 and the minimum inhibitory concentration (E. coli; strain TEM) was 1. The minimum inhibitory concentration (Klebsiella; strain KAE) was 2, the minimum inhibitory concentration (Klebsiella; strain X26) was “.015” and the minimum inhibitory concentration (Klebsiella; strain X68) was 1. For the same compound, the minimum inhibitory concentration (Enterbacter Aerogenes; strain C32) was 1, the minimum inhibitory concentration (Enterbacter Aerogenes; strain EB17) was 1 and the minimum inhibitory concentration (Enterbacter Cloacea; strain 265A) was 16. For the same compound, the minimum inhibitory concentration (Enterbacter Cloacea; strain EB5) was 1, the minimum inhibitory concentration (Salmonella; strain 1335) was 2 and the minimum inhibitory concentration (Salmonella; strain X514) was “.5”. The minimum inhibitory concentration (Serratia; strain SE3) was 16, the minimum inhibitory concentration (Serratia; strain X99) was 2 and the minimum inhibitory concentration (Shig. sonn) was 2. For the same compound, the minimum inhibitory concentration (Proteus morg) was 4, the minimum inhibitory concentration (Proteus incon) was “.25” and the minimum inhibitory concentration (Proteus rett) was “.06”. It also gave a minimum inhibitory concentration (Citro) of 4 and a minimum inhibitory concentration (Acin) of 128.
